In patent US20210395689A1, “METHOD FOR PRODUCING INSULIN-PRODUCING CELLS” (KATAOKA CORPORATION, priority 2018, published 2021):

Tests used:
human fibroblasts = test: Direct induction from human fibroblasts into insulin-producing cells, amount of insulin secreted; type: cell-based; details: culturing for 14 days in differentiation induction medium; 3 μM CHIR99021, 7.5 μM forskolin, 1.5 μM BRD7389, 5 μM LY294002; BI-D1870 5 μM or 10 μM; FIGS. 1 to 4
Source text: The insulin-producing cell produced by the present invention process can be detected, identified, and isolated using, for example, a morphological change of a cell, a characteristic property of an insulin-producing cell, or a specific marker (e.g., an anti-insulin antibody). Moreover, the secretory capacity of the obtained insulin-producing cell can also be evaluated by quantifying the amount of secreted insulin using sandwich ELISA.
The human fibroblasts used as the material were purchased from DS Pharma Biomedical Co., Ltd. The fibroblasts are derived from human skin.
Human fibroblasts were seeded in 35-mm dishes coated with gelatin (Cat #: 190-15805, manufactured by Wako Pure Chemical Industries, Ltd.) at 5×10^4 cells/dish, and cultured in DMEM medium (manufactured by Gibco) supplemented with 10% fetal bovine serum (FBS), 100 U/mL penicillin, and 100 μg/mL streptomycin until confluent under conditions of 37° C. and 5% CO2. Note that DMEM refers to Dulbecco's Modified Eagle's Medium.
The medium of dishes of the human fibroblasts described above was replaced with the differentiation induction medium described below. […]

pancreatic α-cells = details: reported in Non-Patent Document 7; cited from earlier work

O=C1c2ccccc2-c2c(NCCc3ccccc3)c(=O)[nH]c3cccc1c23 [BRD7389]
insulin secretion by insulin-producing cells directly differentiated from human fibroblasts (human fibroblasts): a considerable amount of insulin secretion was observed | expression of insulin genes in pancreatic α-cells (pancreatic α-cells): capacity of activating the expression of insulin genes
